Consider two compounds from patent US9359395B2, “Prodrugs of steroidal CYP17 inhibitors/antiandrogens” (Tokai Pharmaceuticals, Inc., priority 2009, dated 2016).

Data set [1] is described as follows: Oral bioavailability in rats. Particulars: rat, in vivo, initial studies.
Data set [2] relates to AR. Particulars: cited from earlier work.
The conditions of data set [3]: mice, cited from earlier work; for detectability in plasma at 8 hours / peak plasma levels: s.c. 50 mg/kg.
Data set [4] deals with androgen-dependent LAPC4 human prostate tumor xenograft. Particulars: cited from earlier work; for inhibiting the growth of LAPC4 xenograft: in vivo.

For orientation: bioavailability means dose-corrected exposure relative to a reference, in per cent. With `C[C@]12CC[C@H](O)CC1=CCC1C2CC[C@]2(C)C(n3cnc4ccccc43)=CCC12` (stereo partly drawn) [Compound 5, 3-β-hydroxy-17-(1H-benzimidazole-1-yl)androsta-5,16-diene], the bioavailability in data set [1] is around 10%. Further, the AR antagonist activity result in data set [2] is given as “potent pure AR antagonists”. In data set [3], the “detectability in plasma at 8 hours” value is listed as “neither was detectable” and the peak plasma levels was 16.82 ng/mL. The conversion into metabolite result in data set [3] (metabolite tentatively identified as 17-(1H-benzimidazol-1-yl)androsta-3-one) is “rapidly converted into a metabolite”. For the same compound, in data set [4] (50 mg/kg, twice daily, P=0.00065), the “reduction in the mean final tumor volume compared with controls” value is 93.8%. Moreover, the “efficacy compared with castration” value in data set [4] (50 mg/kg, twice daily) is on record as “significantly more effective than castration”. In addition, in data set [4], the “inhibiting the growth of LAPC4 xenograft” value was “very effective”.

Turning to `C[C@]12CCC(=O)C=C1CCC1C2CC[C@]2(C)C(n3cnc4ccccc43)=CCC12` (stereo partly drawn) [Compound 6, 17-(1H-benzimidazole-1-yl)androsta-4,16-diene-3-one], in data set [2], the AR antagonist activity result is reported as “potent pure AR antagonists”. Further, in data set [3], the “detectability in plasma at 8 hours” value was “neither was detectable” and the peak plasma levels is 5.15 ng/mL. The “inhibiting the growth of LAPC4 xenograft” value in data set [4] is given as “ineffective”.
